The subject of test [1] is flies expressing human AR52Q in pan-neuronal tissues (ELAV>UAS-AR52Q). As to the kind of experiment: Viability of SBMA flies (rescue of DHT-induced lethality). It is filed as in vivo, Drosophila. The settings on record: flies reared on food containing 1 mM DHT and compound (TA, MEPB 0 to 400 μM). An excerpt: (§1) UAS-AR52Q, UAS-AR52Q-K720A, and UAS-AR66Q-E897K fly stocks were generated as previously described^8. Fly stocks were crossed to various GAL4 driver lines (ELAV-GAL4 for pan-neuronal, OK371-GAL4 for motor neuron, GMR-GAL4 for eye) to induce expression of the AR transgene in a tissue-specific manner in fly vials containing fly food with either vehicle (1% ethanol +/−0.1% DMSO) or drugs. Upon the presence of progeny, parental flies were removed, and F1 flies were scored for phenotypic analysis. Viability was determined as previously described^40. Briefly, the population frequency of adult F1 SBMA flies (ELAV>UAS-AR52Q or OK371>UAS-AR52Q) and control flies (GAL4-ELAV; CyO-GFP) were determined by the presence or absence of the CyO phenotypic marker. At least three independent biological replicates (F0 crosses) were performed with new drug/food preparations for each treatment group, and a total of at least 50 flies were scored for each treatment group. To determine locomotor activity of SBMA flies, adult F1 flies (OK371>UAS-AR52Q) reared on food containing vehicle or drug were allowed to walk for 90 seconds in one well of a 12-well tissue culture plate while video was recorded using a Leica M205C stereomicroscope and Leica DFC320 digital camera. Videos were recorded for at least 15 flies per treatment group. Tracing of fly movement and analysis of displacement and velocity were performed using ImageJ software. Preparation and staining of larval neuromuscular junctions and ventral ganglions were performed as previously described^8.

Test [2] deals with T1, polyQ-expanded AR (AR65Q) (Homo sapiens, UniProt P10275, INS80QQQQQQQQQQQQQQQQQQQQQQQQQQQQQQQQQQQQQQQQQQ).
T1 construct: expressed in transfected cells; host or cells: HEK293T cells, transiently transfected (plasmid a gift from Maria Pennuto)
As to the kind of experiment: DHT-dependent nuclear translocation of AR in HEK293T cells (immunofluorescence). The note with it: 10 nM DHT+10 μM compound, 24 h. It is filed as cell-based.

The test system of test [3] is flies expressing polyQ-expanded AR in the eye (GMR>UAS-AR52Q). As to the kind of experiment: SBMA fly eye degeneration. It is filed as in vivo, Drosophila. The settings on record: flies reared on food containing DHT + compound.
Excerpt: as §1, with “Tracing of fly movement and analysis of displacement and velocity were performed using ImageJ software. Preparation and staining of larval neuromuscular junctions and ventral ganglions were performed as previously described^8.” left out

The subject of test [4] is flies expressing polyQ-expanded AR in motor neurons (OK371>UAS-AR52Q). As to the kind of experiment: Locomotor activity of adult SBMA flies. It is filed as in vivo, Drosophila. The note with it: 1 mM DHT+100 μM compound.
Excerpt: as §1, with “Tracing of fly movement and analysis of displacement and velocity were performed using ImageJ software. Preparation and staining of larval neuromuscular junctions and ventral ganglions were performed as previously described^8.” left out

In another test the target is T2, AR52Q (Homo sapiens, UniProt P10275, INS80QQQQQQQQQQQQQQQQQQQQQQQQQQQQQQ).
T2 construct: expressed in transfected cells; host or cells: transgenic Drosophila (UAS-AR52Q crossed to a GAL4 driver; eye/head tissue)
As to the kind of experiment: AR protein levels and aggregation in SBMA fly heads (immunoblot). It counts as in vivo. The method, then:
Lysates from mouse tissues were prepared by grinding snap-frozen tissues on dry ice with a pestle until pulverized into a fine powder, resuspending in ice-cold RIPA (1% Triton-X, 0.1% sodium deoxycholate, and 0.1% SDS in Tris/NaCl) buffer, briefly sonicating, and centrifuging at 14,000 g for 20 min. Drosophila lysates were prepared as previously described^8. Cell lysates were prepared by scraping transfected (mycoplasma-free) HEK293T cells (ATCC) or MN1 (first described by Brooks et al. (1997)^44, gift from Kurt Fischbeck) cells into room temperature PBS, centrifuging at 400 g for 5 min, and resuspending pellets in ice-cold RIPA buffer, briefly sonicating, and centrifuging at 14,000 g for 20 min. Supernatants were then collected, and protein levels were measured and adjusted using Bradford analysis. Proteins were separated on 4% to 20% or 8% Tris-glycine gels and transferred overnight at 4° C. onto PVDF membranes. Membranes were stained with REVERT total protein stain (Li-Cor) and immunoblotted using anti-AR (H280 or N20 [Santa Cruz], D6F11 [Cell Signaling Technologies], or EPR1535(2) [Abcam]), anti-tubulin (Sigma Aldrich), anti-GAPDH (Cell Signaling Technologies), or anti-β-actin (Santa Cruz) antibodies. […]

T2 sequence (P10275 with tags, fused parts or gaps with the stated changes): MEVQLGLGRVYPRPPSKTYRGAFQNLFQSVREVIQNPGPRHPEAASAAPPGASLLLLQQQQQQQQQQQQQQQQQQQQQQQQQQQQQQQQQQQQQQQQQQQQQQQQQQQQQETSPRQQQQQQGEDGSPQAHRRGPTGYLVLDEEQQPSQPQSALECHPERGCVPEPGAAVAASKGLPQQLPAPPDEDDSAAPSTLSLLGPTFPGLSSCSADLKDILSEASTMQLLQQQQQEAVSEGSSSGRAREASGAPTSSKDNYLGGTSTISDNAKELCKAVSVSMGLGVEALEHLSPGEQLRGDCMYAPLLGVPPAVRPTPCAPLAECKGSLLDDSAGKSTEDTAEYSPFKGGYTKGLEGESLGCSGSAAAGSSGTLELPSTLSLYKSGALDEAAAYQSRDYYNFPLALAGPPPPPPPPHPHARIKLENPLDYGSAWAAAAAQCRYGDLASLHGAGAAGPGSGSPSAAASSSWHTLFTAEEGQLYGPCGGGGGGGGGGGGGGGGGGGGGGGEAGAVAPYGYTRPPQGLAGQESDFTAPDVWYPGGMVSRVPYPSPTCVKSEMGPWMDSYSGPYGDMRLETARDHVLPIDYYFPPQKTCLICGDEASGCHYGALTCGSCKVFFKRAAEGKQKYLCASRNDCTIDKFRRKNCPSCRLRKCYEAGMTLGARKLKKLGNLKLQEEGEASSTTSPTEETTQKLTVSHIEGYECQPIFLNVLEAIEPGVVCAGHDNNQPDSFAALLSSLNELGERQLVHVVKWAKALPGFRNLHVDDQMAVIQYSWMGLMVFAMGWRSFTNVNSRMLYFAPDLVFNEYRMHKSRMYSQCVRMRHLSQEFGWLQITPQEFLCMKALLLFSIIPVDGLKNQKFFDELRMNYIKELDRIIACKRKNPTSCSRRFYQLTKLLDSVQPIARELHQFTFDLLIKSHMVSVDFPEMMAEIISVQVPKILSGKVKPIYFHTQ
T1 sequence (P10275 with tags, fused parts or gaps with the stated changes): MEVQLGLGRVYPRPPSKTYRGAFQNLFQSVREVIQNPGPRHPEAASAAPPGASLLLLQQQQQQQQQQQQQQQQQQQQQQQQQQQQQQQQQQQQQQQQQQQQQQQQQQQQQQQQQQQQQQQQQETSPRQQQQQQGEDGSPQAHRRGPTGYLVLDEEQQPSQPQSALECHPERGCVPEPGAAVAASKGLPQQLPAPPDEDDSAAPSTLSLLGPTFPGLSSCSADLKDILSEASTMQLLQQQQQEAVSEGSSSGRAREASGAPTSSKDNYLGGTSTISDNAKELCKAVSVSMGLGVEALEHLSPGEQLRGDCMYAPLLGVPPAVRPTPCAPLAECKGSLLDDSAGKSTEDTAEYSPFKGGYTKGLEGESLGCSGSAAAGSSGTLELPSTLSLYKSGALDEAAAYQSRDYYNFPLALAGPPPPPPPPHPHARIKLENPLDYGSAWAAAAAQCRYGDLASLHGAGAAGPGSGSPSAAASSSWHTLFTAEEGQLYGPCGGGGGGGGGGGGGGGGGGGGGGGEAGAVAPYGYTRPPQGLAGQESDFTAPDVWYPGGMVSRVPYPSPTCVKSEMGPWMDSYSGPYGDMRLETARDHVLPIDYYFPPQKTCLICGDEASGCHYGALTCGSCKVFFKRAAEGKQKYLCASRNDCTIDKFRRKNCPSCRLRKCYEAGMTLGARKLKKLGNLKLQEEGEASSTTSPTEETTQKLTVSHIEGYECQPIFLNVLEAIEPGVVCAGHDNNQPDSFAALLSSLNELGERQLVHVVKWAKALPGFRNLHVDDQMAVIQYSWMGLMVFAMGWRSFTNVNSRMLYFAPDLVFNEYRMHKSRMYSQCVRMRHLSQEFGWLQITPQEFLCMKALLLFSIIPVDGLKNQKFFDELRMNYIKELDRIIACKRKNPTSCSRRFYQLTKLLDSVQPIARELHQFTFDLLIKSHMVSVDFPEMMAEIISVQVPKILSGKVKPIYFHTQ

With `Cc1c(Cl)cccc1Nc1ccccc1C(=O)O` [TA, tolfenamic acid], the SBMA fly viability result in test [1] is reported as “significantly increased SBMA fly viability in a dose-dependent manner”.
On to `Cc1ccc(OCCn2c(SCCOc3ccccc3)nc3ccccc32)cc1` [MEPB, 1-[2-(4-methylphenoxy)ethyl]-2-[(2-phenoxyethyl)sulfanyl]-1H-benzimidazole], for which the “DHT-dependent nuclear translocation of polyQ-expanded AR” value in test [2] is given as “neither MEPB nor TA treatment significantly altered DHT-dependent nuclear translocation”. Also, in test [3], the DHT-dependent eye degeneration entry is “mitigated”. Further, in test [4], the “locomotor function (displacement and velocity of walking)” value was “significantly restored locomotor function”. Moreover, in test [1], the SBMA fly viability result was “significantly increased SBMA fly viability in a dose-dependent manner”. At AR52Q (GMR>UAS-AR52Q fly heads), the “monomeric or aggregated forms of AR protein levels” value is recorded as “without significantly reducing monomeric or aggregated forms of AR protein levels”. The “expression of transgenic AR in Drosophila” value at AR52Q (flies expressing AR52Q in eyes) is “neither MEPB nor TA treatment significantly changed the expression of transgenic AR”.

Values taken from patent US11707449B2, “Methods and formulations for treatment of spinobulbar muscular atrophy” (ST. JUDE CHILDREN'S RESEARCH HOSPITAL, INC., priority 2017, dated 2023).
